{
  "source": "patent US20220154192A1",
  "about": "“SYSTEM AND METHOD FOR LIGHT-REGULATED OLIGOMERIZATION AND PHASE SEPARATION OF FOLDED DOMAINS AND RNA GRANULE-ASSOCIATED PROTEIN DOMAINS FOR DRUG- BASED SCREENING APPLICATIONS” (The Trustees of Princeton University, priority 2019, published 2022)",
  "molecules": {"B1": {"name": "CAPRIN1: NTF2-interacting RNA-binding stress granule protein (protein, UniProt Q14444 2-709, looked up)", "Caprin-1": "PSATSHSGSGSKSSGPPPPSGSSGSEAAAGAGAAAPASQHPATGTGAVQTEAMKQILGVIDKKLRNLEKKKGKLDDYQERMNKGERLNQDQLDAVSKYQEVTNNLEFAKELQRSFMALSQDIQKTIKKTARREQLMREEAEQKRLKTVLELQYVLDKLGDDEVRTDLKQGLNGVPILSEEELSLLDEFYKLVDPERDMSLRLNEQYEHASIHLWDLLEGKEKPVCGTTYKVLKEIVERVFQSNYFDSTHNHQNGLCEEEEAASAPAVEDQVPEAEPEPAEEYTEQSEVESTEYVNRQFMAETQFTSGEKEQVDEWTVETVEVVNSLQQQPQAASPSVPEPHSLTPVAQADPLVRRQRVQDLMAQMQGPYNFIQDSMLDFENQTLDPAIVSAQPMNPTQNMDMPQLVCPPVHSESRLAQPNQVPVQPEATQVPLVSSTSEGYTASQPLYQPSHATEQRPQKEPIDQIQATISLNTDQTTASSSLPAASQPQVFQAGTSKPLHSSGINVNAAPFQSMQTVFNMNAPVPPVNEPETLKQQNQYQASYNQSFSSQPHQVEQTELQQEQLQTVVGTYHGSPDQSHQVTGNHQQPPQQNTGFPRSNQPYYNSRGVSRGGSRGARGLMNGYRGPANGFRGGYDGYRPSFSNTPNSGYTQSQFSAPRDYSGYQRDGYQQNFKRGSGQSGPRGAPRGRGGPPRPNRGMPQMNTQQVN"}},
  "key": {"[1]": {"tested_on": "opto-SGs (optogenetic stress granules) of G3BP ΔNTF2 Corelets in U2OS cells", "experiment": "G3BP ΔNTF2 Corelet opto-SG intracellular phase diagram", "type": "cell-based, human", "description": "To quantitatively interrogate the relationship between RBD valence and the threshold protein complex concentration for stress granule formation, the Corelet system described previously (the cores are comprised of a 24-mer ferritin complex coated by iLID molecules, which serves as an oligomerization platform mediated by blue light-stimulated sspB-iLID interactions, where the sspB-iLID is fused to the IDR regions and RBDs of G3BP) can be utilized to quantitatively map valence and concentration-dependent phase diagrams.\nPre-activation and post-activation images of G3BP KO cells stably expressing the indicated fusion proteins were captured with the mCherry (560) channel only to visualize the sspB component without triggering light-induced dimerization with the iLID-mGFP tagged Ferritin core. Cells were activated with a 488-laser using 1% laser power to cause dimerization of iLID and sspB. Activation of cells was achieved by imaging the mCherry and mGFP channels simultaneously using a 6-second frame interval for an area of 120×120 μm2 (1024×1024 pixels) at Nyquist zoom.\n(§1) Cell treatment with arsenite to dissociate polysomes Cells were treated by adding sodium arsenite to cell media at a concentration of 400 μM, which is in excess of saturating concentrations for polysome disassembly (Kedersha et al., 2016). […] Inhibition of polysome disassembly by pre-treating with cycloheximide was added to a final concentration of 100 μg/mL (G3BP KO cells expressing indicated fluorescent fusion proteins). Following 30-minutes of incubation, arsenite was added at a concentration of 400 μM. 1-hour later, cells were assessed for formation of stress granules (GFP-G3BP rescue) or activation cycles were performed (Corelets).\nActinomycin D dissolved in DMSO was used to treat G3BP KO cells expressing indicated Corelets at a concentration of 5 μg/mL. Images were taken 12-18 hours after actinomycin D treatment, a time interval during which nucleoli were no longer apparent by bright field observation and the vast majority of mRNA was expected to be degraded. Final concentration of DMSO was 0.5%. For Actinomycin D plus arsenite experiments, arsenite was added at a concentration of 400 μM˜12 hours following actinomycin D treatment and cells were imaged 1-2 hours subsequently. […] Time point was chosen to maximize the time since treatment (i.e. to reduce RNA cells by as much as possible) without extensive lethality from the drug.\nIn order to determine precise phase threshold boundaries for intracellular phase diagrams, analyzed cells must feature high variability with respect to sspB-mCherry and iLID-mGFP stoichiometries to sample sufficient core concentrations and valencies. In order to achieve a broad concentration range for both components, G3BP KO cells were transduced in 96-well plates (Cellvis) using an arrayed lentivirus approach. In this protocol, rows varied from 2 to 60 μL iLID-GFP-Fe lentivirus; columns, 2 to 60 μL mCherry-sspB-open reading frame (ORF)/ORF-mCherry-sspB lentivirus. G3BP KO cells were plated directly into the arrayed lentivirus to attain ˜25% confluency upon subsequent attachment to the plastic substrate."}, "stress granules": {"tested_on": "stress granules", "experiment": "Arsenite-induced stress granule formation time course", "type": "cell-based, human", "settings": "arsenite 400 μM", "protocol": "as §1"}, "G3BP KO cells": {"tested_on": "G3BP KO cells", "experiment": "Lethality of drug treatment in cultured cells (qualitative observation)", "settings": "arsenite 400 μM; Actinomycin D 5 μg/mL", "protocol": "as §1\nActinomycin D dissolved in DMSO was used to treat G3BP KO cells expressing indicated Corelets at a concentration of 5 μg/mL. Images were taken 12-18 hours after actinomycin D treatment, a time interval during which nucleoli were no longer apparent by bright field observation and the vast majority of mRNA was expected to be degraded. Final concentration of DMSO was 0.5%. For Actinomycin D plus arsenite experiments, arsenite was added at a concentration of 400 μM˜12 hours following actinomycin D treatment and cells were imaged 1-2 hours subsequently."}, "[2]": {"tested_on": "stress granule formation in G3BP KO U2OS cells", "experiment": "G3BP rescue / rescue competition of stress granule formation in G3BP KO U2OS cells", "type": "cell-based, human", "settings": "for rescue of stress granule formation in G3BP KO cells: expressed protein in G3BP KO cells", "experimental": "For G3BP rescue competition experiments, an identical arrayed lentivirus approach was used as described in Phase diagram data collection (i.e. 2-60 μL G3BPmCherry and 2-60 μL mGFP-ORF, arrayed 4-wells by 4-wells for 16-wells total of a 96-well plate). G3BP KO cells were plated into lentivirus then combined and passaged 72-hours later.\nLive cell confocal microscopy was performed on Day 5 post-transduction. For each condition (GFP-tagged protein of interest), 4 separate experiments (each experiment=1-well/arsenite treatment) were performed on three separate days with numerous technical replicates (fields of view). Live confocal imaging was performed 1-2 hours following arsenite treatment. mCherry and mGFP concentrations were determined similarly as for phase diagrams and manual scoring of stress granule absence or presence was performed. Similar protocols were used to assess rescue in the absence of competition.\nThe concentration of each cell was determined via manual image segmentation as previously described and absence or presence of stress granules was annotated. To determine a boundary from the data, a support vector machine (SVM) trained using the concentrations of the two components as explanatory variables and the categorical stress granule state as a response variable by applying the fitcsvm( ) function in the MATLAB Statistics and Machine Learning package using the default solver. Briefly, a support vector machine constructs a linear decision surface based on boundary points (‘support vectors’), with the assumption that the data is linearly separable. […]\nFor each experiment, the concentration of the protein of interest was determined for each cell, and the presence of stress granules was categorized. […] Specifically, the probability density was calculated by binning the concentration distribution using a square root number rule. Within each bin, the probability of having stress granules was calculated as the number of cells with stress granules over the total number of cells in that bin. […]"}, "CAPRIN1 RGG Corelets": {"tested_on": "CAPRIN1 RGG Corelets", "experiment": "CAPRIN1 RGG (RBD) Corelet phase separation after RNA depletion", "type": "cell-based, human", "settings": "RNA depletion by Actinomycin D", "excerpt": "High valence G3BP RBD nodes (but not dimeric bridges) are sufficient to induce stress granule formation following polysome disassembly, but it is unclear whether this is a unique feature of G3BP or common to RNA-binding nodes that interact with G3BP NTF2. We reasoned that if such NTF2-associated RBPs contribute essential, additive RNA-binding valence to the multi-protein complex, synthetic high valence nodes connected to individual RBDs would nucleate opto-SGs in isolation (i.e. mimic G3BP RBD Corelets). To test this, the RBDs of CAPRIN1 and UBAP2L were oligomerized utilizing the Corelet system, and mapped phase diagrams in both non-treated and arsenite-exposed cells. […] Further, condensate protein composition, P-body attachment, and relative phase thresholds are not determined by the type or number of RNA-binding motifs. […]\nIn order to determine precise phase threshold boundaries for intracellular phase diagrams, analyzed cells must feature high variability with respect to sspB-mCherry and iLID-mGFP stoichiometries to sample sufficient core concentrations and valencies. […] In this protocol, rows varied from 2 to 60 μL iLID-GFP-Fe lentivirus; columns, 2 to 60 μL mCherry-sspB-open reading frame (ORF)/ORF-mCherry-sspB lentivirus. […]"}},
  "note": "“Also recorded” adds a separate entry of the source. *1 amine or outer side, *2 acyl side, *3 side chain or, on linkers, in order; H or OH if unused. Where a SMILES comes first, the peptide text is derived from it. Bridges are numbered along the chain shown (N, C = ends). Roman numbers before positions name the chains, in order. [ ]: non-standard residue; d: D form. Actinocin(9to1) = Cc1c2oc3c(C)ccc(C(=O)[*:1])c3nc-2c(C(=O)[*:2])c(N)c1=O; NMeV = CN[C@H](C(=O)O)C(C)C; Sar = CNCC(=O)O",
  "data": [
    {"molecule": "O=[As]O", "note": "[arsenite, sodium arsenite]", "values": [
      {"measurement": "valence required to drive condensation", "setting": "[1]; at 0.15 μM Core, arsenite 400 μM, non-stressed cells need valence ~24", "value": "~8"},
      {"measurement": "time by which SG number/size peaked", "setting": "stress granules", "value": "≤ 45", "unit": "min"},
      {"measurement": "time after treatment at which cells began to die / treatment was lethal", "setting": "G3BP KO cells", "value": "~6", "unit": "h"}
    ]},
    {"molecule": "G3BP: stress granule nucleating protein, fluorescently tagged, expressed in G3BP KO cells", "values": [
      {"measurement": "EC50", "setting": "[2]; G3BP KO U2OS cells, arsenite, read-out: G3BP concentration for rescue of stress granule formation", "value": 620, "unit": "nM"}
    ]},
    {"molecule": "C[C@@H]1C[C@@H]([C@H](O)CC2CC(=O)NC(=O)C2)C(=O)[C@@H](C)C1", "note": "[cycloheximide]", "values": [
      {"measurement": "calculated best-fit phase threshold", "setting": "[1]; arsenite and cycloheximide, FIG. 15C vs FIG. 15A", "value": "almost identical to that of nontreated cells"},
      {"measurement": "arsenite-driven shift in the opto-SG phase diagram", "setting": "[1]; pre-treatment with cycloheximide 100 μg/mL 30 min, then arsenite 400 μM", "value": "negated"}
    ]},
    {"molecule": "G3BP F33W: G3BP variant unable to bind USP10 or CAPRIN1", "values": [
      {"measurement": "rescue of stress granule formation in G3BP KO cells", "setting": "[2]", "value": "rescues SG formation"}
    ]},
    {"molecule": "Cc1c2oc3c(C)ccc(C(=O)N[C@@H]4C(=O)N[C@H](C(C)C)C(=O)N5CCC[C@H]5C(=O)N(C)CC(=O)N(C)[C@@H](C(C)C)C(=O)O[C@@H]4C)c3nc-2c(C(=O)N[C@@H]2C(=O)N[C@H](C(C)C)C(=O)N3CCC[C@H]3C(=O)N(C)CC(=O)N(C)[C@@H](C(C)C)C(=O)O[C@@H]2C)c(N)c1=O", "note": "[Actinomycin D] (I: T[dV]P[Sar][NMeV] / II: T[dV]P[Sar][NMeV]; ester I:1-I:C, II:1-II:C; linker I:N-II:N via Actinocin(9to1))", "values": [
      {"measurement": "phase separation of CAPRIN1 RGG Corelets", "setting": "CAPRIN1 RGG Corelets", "value": "abrogates phase separation"},
      {"measurement": "formation of opto-SGs", "setting": "[1]; Actinomycin D 5 μg/mL, 12-18 hours, FIG. 15D", "value": "prevents the formation of opto-SGs; also recorded: disrupts the formation of SGs"},
      {"measurement": "time after treatment at which cells began to die / treatment was lethal", "setting": "G3BP KO cells", "value": "30 to 36", "unit": "h"}
    ]},
    {"molecule": "B1", "values": [
      {"measurement": "rescue of stress granule formation in G3BP KO cells", "setting": "[2]", "value": "does not rescue"}
    ]}
  ]
}
